Measured values from US11865126B2, “Method for treating anxiety disorders, headache disorders, and eating disorders with psilocybin” (priority 2019, dated 2024).

System: healthy subjects
Assay: Scale of Social Responsibility (SSR)
Assay type: in vivo, human
Protocol: In some embodiments, the Scale of Social Responsibility (SSR) is utilized to evaluate the safety and/or efficacy of psilocybin. The SSR measures perceptions regarding the importance of ethics and social responsibility.
The following list of outcome measures are non-exhaustive. • a. The short-term change from Baseline (Day −1 [Visit 2]) to Day 7 (Visit 5) in cognitive measures of attention, spatial and working memory and executive function was measured by a composite score of the CANTAB Panel (Spatial Working Memory [SWM], Rapid Visual Information Processing [RVP], Paired Associates Learning [PAL]). • b. The short-term change from Baseline (Day −1 [Visit 2]) to Day 7 (Visit 5) in Social Cognition Panel scales (Pictorial Empathy Test [PET], Reading the Mind in the Eyes Test [RMET], Toronto Empathy Questionnaire [TEQ], Social Value Orientation [SVO], Scale of Social Responsibility [SSR]). • c. The change from Baseline (Day −1 [Visit 2]) to Day 28 (Visit 6) in cognitive measures of attention, spatial and working memory and executive function as measured by a composite score of the CANTAB Panel (SWM, RVP, PAL). • d. The long-term change from Baseline (Day −1 [Visit 2]) to Day 84 (Visit 7) in Social Cognition Panel scales (PET, RMET, TEQ, SVO, SSR). • e. Dose-related differences between cognitive effects of psilocybin at Baseline (Day −1 [Visit 2]), Day 7 (Visit 5) and Day 28 (Visit 6), as measured by a composite score of the CANTAB Panel (SWM, RVP, PAL). • f. Dose-related differences between psychological effects of psilocybin at Baseline (Day −1 [Visit 2]), Day 7 (Visit 5) and Day 84 (Visit 7), as measured by Social Cognition Panel scales (PET, RMET, TEQ, SVO, SSR). • g. Differences in cognitive effects of psilocybin between psilocybin-naïve and experienced subjects at Baseline (Day −1 [Visit 2]), Day 7 (Visit 5) and Day 28 (Visit 6), as measured by a composite score of the CANTAB Panel (SWM, RVP, PAL). • h. Differences in Positive and Negative Affect Schedule (PANAS) after study drug administration on Day 0 (Visit 3). • i. Differences between psilocybin and placebo in the Emotion Recognition Test (ERT), Intra-Extra Dimensional Set Shift (IED), One Touch Stockings (OTS), Verbal Fluency and Digit Span Forward at Day 7 (Visit 5). • j. A composite score of the CANTAB Panel, including the following tests: • i. Spatial Working Memory (SWM) (performed at Visit 2, Visit 5, and Visit 6). • ii. Rapid Visual Information Processing (RVP) (performed at Visit 2, Visit 5, and Visit 6). • iii. Paired Associates Learning (PAL) (performed at Visit 2, Visit 5, and Visit 6). • k. Cognitive Flexibility Panel • i. Emotion Recognition Task (ERT) (performed at Visit 5). • ii. Intra-Extra Dimensional Set Shift (IED) (performed at Visit 5). • iii. One Touch Stockings (OTS) (performed at Visit 5). • iv. Verbal Fluency (performed at Visit 5). • v. Digit Span Forward (performed at Visit 5). • l. Five Dimension Altered States of Consciousness questionnaire (5D-ASC) (performed at Visit 3). • m. PANAS (performed at Visit 2 and Visit 3). • n. NEO-Five Factor Inventory (NEO-FFI) (performed at Visit 2, Visit 5, and Visit 7). • o. Symptom Checklist-90 item (SCL-90) (performed at Visit 2, Visit 5, and Visit 7). • p. Life Changes Inventory (LCI): The LCI measures changes in attitudes and values after near-death experiences often used to evaluate personal transformation following spiritually oriented experiences and practices. (performed at Visit 5 and Visit 7). • q. Social Cognition Panel scales • i. Pictorial Empathy Test (PET) (performed at Visit 2, Visit 5, and Visit 7). • ii. Reading the Mind in the Eyes Test (RMET) (performed at Visit 2, Visit 5, and Visit 7). • iii. Social Value Orientation (SVO) (performed at Visit 2, Visit 5, and Visit 7). • iv. Toronto Empathy Questionnaire (TEQ) (performed at Visit 2, Visit 5, and Visit 7). • v. Scale of Social Responsibility (SSR) (performed at Visit 2, Visit 5, and Visit 7). • r. Sheehan Suicidality Tracking Scale (SSTS) • s. […]

## CN(C)CCc1c[nH]c2cccc(OP(=O)(O)O)c12 [psilocybin]
Day 7, MMRM
  SSR compliance social rules change from baseline, LS mean difference Psilocybin 10 mg - Placebo: 0.0
  SSR compliance social rules change from baseline, LS mean difference Psilocybin 25 mg - Placebo: 0.1
  SSR compliance social rules change from baseline, LS mean difference Psilocybin 25 mg-10 mg: 0.1
  SSR fulfilling expectations change from baseline, LS mean difference Psilocybin 10 mg - Placebo: 0.1
  SSR fulfilling expectations change from baseline, LS mean difference Psilocybin 25 mg - Placebo: 0.2
  SSR fulfilling expectations change from baseline, LS mean difference Psilocybin 25 mg-10 mg: 0.1
  SSR global change from baseline, LS mean difference Psilocybin 10 mg - Placebo: 1.2
  SSR global change from baseline, LS mean difference Psilocybin 25 mg - Placebo: 2.8
  SSR global change from baseline, LS mean difference Psilocybin 25 mg-10 mg: 1.6
Day 84, MMRM
  SSR compliance social rules change from baseline, LS mean difference Psilocybin 10 mg - Placebo: −0.0
  SSR compliance social rules change from baseline, LS mean difference Psilocybin 25 mg - Placebo: 0.1
  SSR compliance social rules change from baseline, LS mean difference Psilocybin 25 mg-10 mg: 0.1
  SSR fulfilling expectations change from baseline, LS mean difference Psilocybin 10 mg - Placebo: −0.1
  SSR fulfilling expectations change from baseline, LS mean difference Psilocybin 25 mg - Placebo: 0.0
  SSR fulfilling expectations change from baseline, LS mean difference Psilocybin 25 mg-10 mg: 0.2
  SSR global change from baseline, LS mean difference Psilocybin 10 mg - Placebo: 0.3
  SSR global change from baseline, LS mean difference Psilocybin 25 mg - Placebo: 2.2
  SSR global change from baseline, LS mean difference Psilocybin 25 mg-10 mg: 1.8
Psilocybin 10 mg, Day 7, MMRM
  SSR fulfilling expectations change from baseline, LS mean: −0.1
Psilocybin 10 mg, Day 84, MMRM
  SSR fulfilling expectations change from baseline, LS mean: 0.2
Psilocybin 25 mg, Day 7, MMRM
  SSR fulfilling expectations change from baseline, LS mean: −0.0
Psilocybin 25 mg, Day 84, MMRM
  SSR fulfilling expectations change from baseline, LS mean: −0.0
